Assay results: ChEMBL document CHEMBL4418299, “Compounds useful as csf1 modulators” (2016)
pIC50: −log10 of the molar value.

What was measured:
[1] = molecular target: Macrophage colony-stimulating factor 1 receptor (Homo sapiens, UniProt P07333); assay: Displacement of kinase tracer 236 from recombinant human His-tagged CSF1R cytoplasmic domain (538 to 910 residues) expressed in baculovirus-infected insect cells measured after 5 hrs by TR-FRET based LanthaScreen assay
[2] = molecular target: Vascular endothelial growth factor receptor 2 (Homo sapiens, UniProt P35968); assay: Displacement of kinase tracer 236 from recombinant human His-tagged KDR cytoplasmic domain (789 to 1356 residues) expressed in baculovirus-infected insect cells measured after 5 hrs by TR-FRET based LanthaScreen assay
Chain of Vascular endothelial growth factor receptor 2 (P35968 whole entry, the tested form may be a part): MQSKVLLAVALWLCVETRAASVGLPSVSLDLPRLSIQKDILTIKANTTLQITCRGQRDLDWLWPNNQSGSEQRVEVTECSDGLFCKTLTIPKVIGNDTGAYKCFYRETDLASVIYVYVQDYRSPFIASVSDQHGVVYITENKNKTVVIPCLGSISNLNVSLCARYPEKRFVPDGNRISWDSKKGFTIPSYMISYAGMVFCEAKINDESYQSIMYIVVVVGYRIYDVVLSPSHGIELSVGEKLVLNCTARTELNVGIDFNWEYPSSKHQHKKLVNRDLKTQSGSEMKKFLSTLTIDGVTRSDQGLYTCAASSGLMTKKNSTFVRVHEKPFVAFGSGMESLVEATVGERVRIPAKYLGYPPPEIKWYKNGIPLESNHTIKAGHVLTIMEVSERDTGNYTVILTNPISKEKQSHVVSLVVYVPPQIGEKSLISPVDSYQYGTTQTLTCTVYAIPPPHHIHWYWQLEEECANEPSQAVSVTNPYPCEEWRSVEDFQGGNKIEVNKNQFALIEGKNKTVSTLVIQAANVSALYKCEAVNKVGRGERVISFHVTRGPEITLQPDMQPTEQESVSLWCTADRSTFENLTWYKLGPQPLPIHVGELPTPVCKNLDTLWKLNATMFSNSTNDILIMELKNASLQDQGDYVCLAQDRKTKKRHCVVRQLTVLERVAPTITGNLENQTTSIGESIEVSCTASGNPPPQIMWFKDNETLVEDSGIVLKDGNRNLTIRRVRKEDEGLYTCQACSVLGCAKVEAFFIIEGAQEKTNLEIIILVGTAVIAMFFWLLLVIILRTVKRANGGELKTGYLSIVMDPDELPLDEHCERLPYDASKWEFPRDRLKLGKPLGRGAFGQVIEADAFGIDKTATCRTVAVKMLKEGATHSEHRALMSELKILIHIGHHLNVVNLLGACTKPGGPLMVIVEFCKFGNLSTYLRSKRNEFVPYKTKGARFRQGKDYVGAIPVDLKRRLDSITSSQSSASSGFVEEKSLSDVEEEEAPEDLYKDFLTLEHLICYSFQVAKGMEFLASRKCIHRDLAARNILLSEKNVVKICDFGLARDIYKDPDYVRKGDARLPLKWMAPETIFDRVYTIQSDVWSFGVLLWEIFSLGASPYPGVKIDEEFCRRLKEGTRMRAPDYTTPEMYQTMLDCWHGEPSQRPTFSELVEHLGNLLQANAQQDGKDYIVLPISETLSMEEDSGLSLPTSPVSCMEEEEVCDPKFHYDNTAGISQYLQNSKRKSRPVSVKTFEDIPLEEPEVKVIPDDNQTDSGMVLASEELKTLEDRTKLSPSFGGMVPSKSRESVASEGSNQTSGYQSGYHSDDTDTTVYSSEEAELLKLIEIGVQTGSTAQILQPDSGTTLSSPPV

Chain of Macrophage colony-stimulating factor 1 receptor (P07333 whole entry, the tested form may be a part): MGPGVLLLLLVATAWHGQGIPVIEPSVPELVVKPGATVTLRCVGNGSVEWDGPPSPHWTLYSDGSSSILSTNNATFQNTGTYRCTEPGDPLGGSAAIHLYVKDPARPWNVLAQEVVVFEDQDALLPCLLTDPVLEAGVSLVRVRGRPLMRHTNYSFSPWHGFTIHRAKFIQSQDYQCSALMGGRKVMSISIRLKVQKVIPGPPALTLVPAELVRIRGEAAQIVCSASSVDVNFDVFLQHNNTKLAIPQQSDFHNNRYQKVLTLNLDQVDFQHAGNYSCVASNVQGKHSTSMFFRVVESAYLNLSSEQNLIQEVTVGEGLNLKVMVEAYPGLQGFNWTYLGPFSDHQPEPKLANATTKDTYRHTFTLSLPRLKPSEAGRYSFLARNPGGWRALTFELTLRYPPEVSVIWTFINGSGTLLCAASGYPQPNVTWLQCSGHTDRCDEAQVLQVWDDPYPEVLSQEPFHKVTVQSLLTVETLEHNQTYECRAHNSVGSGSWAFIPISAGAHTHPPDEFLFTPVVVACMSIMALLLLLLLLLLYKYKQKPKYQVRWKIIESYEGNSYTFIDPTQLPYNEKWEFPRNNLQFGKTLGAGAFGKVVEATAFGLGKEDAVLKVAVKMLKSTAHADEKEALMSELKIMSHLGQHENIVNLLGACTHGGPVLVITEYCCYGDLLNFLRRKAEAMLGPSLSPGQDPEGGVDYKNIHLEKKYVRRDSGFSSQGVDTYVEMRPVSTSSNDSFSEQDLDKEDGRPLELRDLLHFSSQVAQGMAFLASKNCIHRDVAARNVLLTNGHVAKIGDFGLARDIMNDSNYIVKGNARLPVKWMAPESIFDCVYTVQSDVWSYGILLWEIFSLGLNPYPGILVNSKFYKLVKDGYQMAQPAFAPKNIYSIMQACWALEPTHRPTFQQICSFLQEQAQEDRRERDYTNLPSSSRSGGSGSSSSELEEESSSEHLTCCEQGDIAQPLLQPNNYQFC

Row | pIC50 [1] | pIC50 [2] | Structure (SMILES)
1 | 6.70 to 8.00 | < 6.70 | Cc1ccc(F)c(NC(=O)Cc2ccc(-n3c4c(c5ncnc(N)c53)COC4)cc2)c1
2 | 6.70 to 8.00 | < 6.70 | COc1ccc(NC(=O)Cc2ccc(-n3c4c(c5ncnc(N)c53)CCC4)cc2)c(F)c1
3 | > 8.00 | > 8.00 | CC(C)(C)c1cc(NC(=O)Cc2ccc(-n3c4c(c5ncnc(N)c53)CCC4)cc2)n(-c2ccccc2)n1
4 | > 8.00 | < 6.70 | Nc1ncnc2c3c(n(-c4ccc(CC(=O)Nc5ccc(Cl)c(C(F)(F)F)c5)cc4)c12)COC3
5 | 6.70 to 8.00 | < 6.70 | COc1ccc(NC(=O)Cc2ccc(-n3c4c(c5ncnc(N)c53)CCC4)cc2)cn1
6 | 8.05 | < 6.70 | Nc1ncnc2c3c(n(-c4ccc(CC(=O)Nc5ccc(Cl)c(C(F)(F)F)c5)cc4)c12)CCC3
7 | > 8.00 | 6.70 to 8.00 | Nc1ncnc2c3c(n(-c4ccc(CC(=O)Nc5ccc6c(c5)CCC6)cc4)c12)CCC3
8 | 6.70 to 8.00 | < 6.70 | Nc1ncnc2c3c(n(-c4ccc(CC(=O)Nc5nc(C(F)(F)F)cs5)cc4)c12)CCC3
9 | > 8.00 | < 6.70 | COc1cc(-n2c3c(c4ncnc(N)c42)CCC3)ccc1CC(=O)Nc1ccnc(C(F)(F)F)c1
10 | > 8.00 | < 6.70 | COc1cc(-n2c3c(c4ncnc(N)c42)CCC3)ccc1CC(=O)Nc1ccc(Cl)c(Cl)c1
11 | 6.70 to 8.00 | < 6.70 | Nc1ncnc2c3c(n(-c4ccc(CC(=O)Nc5ccc(C(F)(F)F)nc5)cc4)c12)CCC3
12 | > 8.00 | < 6.70 | Nc1ncnc2c3c(n(-c4ccc(CC(=O)Nc5ccc(Cl)c(Cl)c5)cc4)c12)CCC3
13 | 6.70 to 8.00 | < 6.70 | Nc1ncnc2c3c(n(-c4ccc(CC(=O)Nc5ccc(C(F)(F)F)nn5)cc4)c12)CCC3
14 | > 8.00 | < 6.70 | COc1ccc(NC(=O)Cc2ccc(-n3c4c(c5ncnc(N)c53)CCC4)cc2)cc1F
15 | > 8.00 | < 6.70 | Nc1ncnc2c3c(n(-c4ccc(CC(=O)N5CCOc6ccccc65)cc4)c12)CCC3
16 | 6.70 to 8.00 | < 6.70 | Nc1ncnc2c3c(n(-c4ccc(CC(=O)Nc5ccc(OC(F)(F)F)cc5)cc4)c12)CCC3

Row | pIC50 [1] | pIC50 [2] | Structure (SMILES)
17 | > 8.00 | < 6.70 | Nc1ncnc2c3c(n(-c4ccc(CC(=O)Nc5ccc(C(F)(F)F)c(Cl)c5)cc4)c12)CCC3
18 | > 8.00 | 6.70 to 8.00 | COc1ccc(NC(=O)Cc2ccc(-n3c4c(c5ncnc(N)c53)COC4)cc2)cc1C(F)(F)F
19 | 6.70 to 8.00 | < 6.70 | Nc1ncnc2c3c(n(-c4ccc(CC(=O)Nc5ccc(C(F)(F)F)cn5)cc4)c12)CCC3
20 | 6.70 to 8.00 | < 6.70 | Nc1ncnc2c3c(n(-c4ccc(CC(=O)Nc5nc(C(F)(F)F)co5)cc4)c12)CCC3
21 | 6.70 to 8.00 | < 6.70 | Nc1ncnc2c3c(n(-c4ccc(CC(=O)Nc5ccc(C(F)(F)F)cn5)cc4)c12)COC3
22 | > 8.00 | < 6.70 | COc1ccc(NC(=O)Cc2ccc(-n3c4c(c5ncnc(N)c53)CCC4)cc2OC)cc1F
23 | > 8.00 | < 6.70 | Cn1ccc2cc(NC(=O)Cc3ccc(-n4c5c(c6ncnc(N)c64)CCC5)cc3)ccc21
24 | > 8.00 | 6.70 to 8.00 | Cc1ccc(F)c(NC(=O)Cc2ccc(-n3c4c(c5ncnc(N)c53)CCC4)cc2)c1
25 | > 8.00 | < 6.70 | COc1cc(-n2c3c(c4ncnc(N)c42)CCC3)ccc1CC(=O)Nc1ccc(OC(F)(F)F)cc1
26 | < 6.70 | < 6.70 | Nc1ncnc2c3c(n(-c4ccc(CC(=O)NC5CCOCC5)cc4)c12)CCC3
27 | > 8.00 | < 6.70 | COc1cc(-n2c3c(c4ncnc(N)c42)CCC3)ccc1CC(=O)Nc1ccc(Cl)c(C(F)(F)F)c1
28 | > 8.00 | < 6.70 | COc1cc(-n2c3c(c4ncnc(N)c42)CCC3)ccc1CC(=O)Nc1ccc(OC)c(C(F)(F)F)c1
29 | 6.70 to 8.00 | 6.70 to 8.00 | Nc1ncnc2c3c(n(-c4ccc(CC(=O)Nc5ccnc(C(F)(F)F)c5)cc4)c12)CCC3
30 | > 8.00 | 6.70 to 8.00 | COc1ccc(NC(=O)Cc2ccc(-n3c4c(c5ncnc(N)c53)CCC4)cc2)cc1C(F)(F)F
31 | > 8.00 | < 6.70 | COc1cc(-n2c3c(c4ncnc(N)c42)CCC3)ccc1CC(=O)Nc1cc(C(F)(F)F)ccc1F
32 | 6.70 to 8.00 | < 6.70 | Nc1ncnc2c3c(n(-c4ccc(CC(=O)Nc5ccc(OC(F)(F)F)cc5)cc4)c12)COC3
